The values below come from patent publication US10508109B2 (priority 2015, dated 2019).

pIC50: −log10 of the molar value. Where a name gives a salt, the structure may show the parent alone. Read-outs that look alike come from different tables or passages of the source.

The subject of one assay is HCT-116. Description: Cell-based assay, anti-proliferative activity (Cell Counting Kit-8, 72 hours). The note with it: Homo sapiens, read-out: IC50 (μM) HCT-116. On the procedure:
(§1) Active candidate inhibitors against SUV39H2 were evaluated for their target-specific cytotoxicity using A549, HCT-116, HFL1, CCD-18Co and PC14. 100 micro-L of cell suspension was seeded onto 96-well microtiter plate (ViewPlate-96FTC, PerkinElmer). The initial cell concentration of A549, HCT-116, HFL1, CCD-18Co and PC14 were 3,000 cells/well, 2,000 cells/well and 2,500 cells/well, respectively. Cellular growth was determined using Cell Counting Kit-8 (DOJINDO) at 72 hours after the exposure of the candidate inhibitors. IC50 was used as an indicator of the anti-proliferative activity of the inhibitors, and calculated by serial dilution method (0, 1.5625, 3.125, 6.25, 12.5, 25, 50, and 100 micro-M). Accurate IC50 values were calculated as described previously.

The next assay relates to CCD-18Co. The assay is described as above. As to conditions: Homo sapiens, read-out: IC50 (μM) CCD-18Co. On the procedure: as §1
In the next assay the test system is HFL1. The assay is described as above. As to conditions: Homo sapiens, read-out: IC50 (μM) HFL1. The procedure:
as §1

A further assay concerns A549. The assay is described as above. The note with it: Homo sapiens; for IC50: read-out: IC50 (μM) A549; for pIC50: 72 hours exposure, Cell Counting Kit-8, read-out: A549 IC50. On the procedure: 100 micro-L of cell suspension was seeded onto 96-well microtiter plate (ViewPlate-96FTC, PerkinElmer). […] Cellular growth was determined using Cell Counting Kit-8 (DOJINDO) at 72 hours after the exposure of the candidate inhibitors. […] Accurate IC50 values were calculated as described previously.

In another assay the target is SUV39H2 (Homo sapiens (Human), UniProt Q9H5I1). As to conditions: read-out: IC50 (μM) Suv 39H2 assay.
Sequence of SUV39H2 (Q9H5I1 whole entry): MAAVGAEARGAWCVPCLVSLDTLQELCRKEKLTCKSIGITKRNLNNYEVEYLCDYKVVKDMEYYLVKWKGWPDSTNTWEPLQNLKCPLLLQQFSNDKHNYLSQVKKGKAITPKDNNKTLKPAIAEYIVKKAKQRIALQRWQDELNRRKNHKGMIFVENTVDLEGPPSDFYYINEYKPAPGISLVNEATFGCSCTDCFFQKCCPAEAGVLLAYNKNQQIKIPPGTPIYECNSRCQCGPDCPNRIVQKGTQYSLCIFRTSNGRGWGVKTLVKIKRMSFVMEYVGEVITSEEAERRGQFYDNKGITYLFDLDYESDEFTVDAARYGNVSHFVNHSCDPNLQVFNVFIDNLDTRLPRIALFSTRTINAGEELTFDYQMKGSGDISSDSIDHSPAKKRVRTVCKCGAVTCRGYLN
[1] abbreviates: HCT-116 cells, Cell Counting Kit-8, 72 hours.
Where [2] appears, read: CCD-18Co cells, Cell Counting Kit-8, 72 hours.
Where [3] appears, read: HFL1 cells, Cell Counting Kit-8, 72 hours.
[4] abbreviates: A549 cells, Cell Counting Kit-8, 72 hours.

Take `COc1cc(OC)c(-c2cn3ccc(C4CCNCC4)cc3n2)cc1Cl` [Example 112, 2-(5-chloro-2,4-dimethoxyphenyl)-7-(piperidin-4-yl)imidazo[1,2-a]pyridine]: the IC50 with HCT-116 (setting [1]) is 7.5 µM; with CCD-18Co (setting [2]), 8.8 µM; with HFL1 (setting [3]), 6.7 µM; with A549 (setting [4]), 6.3 µM; on SUV39H2 (enzyme assay) it was 0.0623 µM.

With `COc1cc(OC)c(-c2cn3ccc(N)cc3n2)cc1Br` [Example 5, 2-(5-bromo-2,4-dimethoxyphenyl)imidazo[1,2-a]pyridin-7-amine], the IC50 in the assay on HCT-116 (setting [1]) was 3.1 µM; in the assay on CCD-18Co (setting [2]) it was 3.8 µM; in the assay on HFL1 (setting [3]), 2.1 µM; with A549 (setting [4]), 3.6 µM; at SUV39H2 (enzyme assay) it was 0.0103 µM.

With `COc1cc(OC)c(-c2cn3ccc(NCCNC(=O)OC(C)(C)C)nc3n2)cc1Br` [Example 18, tert-butyl (2-((2-(5-bromo-2,4-dimethoxyphenyl)imidazo[1,2-a]pyrimidin-7-yl)amino)ethyl)carbamate], the IC50 was 13 µM in the assay with HCT-116 (setting [1]); 12 µM in the assay on CCD-18Co (setting [2]); 11 µM in the assay with HFL1 (setting [3]); 14 µM with A549 (setting [4]); 0.0884 µM on SUV39H2 (enzyme assay).

Turning to `COc1cc(OC)c(-c2cn3ccc(N4CCC(NC(=O)CCN)C4)cc3n2)cc1Cl` (stereo not shown) [Example 50, 3-amino-N-(1-(2-(5-chloro-2,4-dimethoxyphenyl)imidazo[1,2-a]pyridin-7-yl)pyrrolidin-3-yl)propanamide], the IC50 on SUV39H2 (enzyme assay) came out at 0.00575 µM.

With `COc1cc(OC)c(-c2cn3ccc(N)nc3n2)cc1Br` [Example 2, 2-(5-bromo-2,4-dimethoxyphenyl)imidazo[1,2-a]pyrimidin-7-amine hydrochloride], the IC50 in the assay with HCT-116 (HCT-116, 72 h) was 17 µM; in the assay on CCD-18Co (CCD-18Co, 72 h), 16 µM; with HFL1 (HFL1, 72 h), 16 µM; in the assay on A549 (A549, 72 h) it was 18 µM; at SUV39H2 it was 0.0169 µM.

As to `COc1cc(OC)c(-c2cn3ccc(-c4cncc(N)c4)cc3n2)cc1Cl` [Example 27, 5-[2-(5-chloro-2,4-dimethoxyphenyl)imidazo[1,2-a]pyridin-7-yl]pyridin-3-amine], the IC50 in the assay on HCT-116 (setting [1]) came to 3.3 µM; in the assay with CCD-18Co (setting [2]), 3.3 µM; in the assay on HFL1 (setting [3]) it was 1.8 µM; in the assay on A549 (setting [4]), 1.9 µM; at SUV39H2 (enzyme assay), 0.0396 µM.

Turning to `COc1cc(OC)c(-c2cn3ccc(C4=CCN(CCC(=O)O)CC4)cc3n2)cc1Cl` [Example 141, 3-(4-(2-(5-chloro-2,4-dimethoxyphenyl)imidazo[1,2-a]pyridin-7-yl)-5,6-dihydropyridin-1(2H)-yl)propanoic acid], the IC50 on SUV39H2 (enzyme assay) amounted to 0.0777 µM.

Turning to `COc1cc(OC)c(-c2cn3ccc(NCCN4CCOCC4)cc3n2)cc1Cl` [Example 70, 2-(5-chloro-2,4-dimethoxyphenyl)-N-(2-morpholinoethyl)imidazo[1,2-a]pyridine-7-amine], the IC50 with HCT-116 (setting [1]) was found to be 10 µM; with CCD-18Co (setting [2]) it was 14 µM; in the assay on HFL1 (setting [3]), 8.4 µM; in the assay with A549 (setting [4]), 14 µM; on SUV39H2 (enzyme assay), 0.0165 µM.

Consider `COC(=O)c1ccc(CN[C@H]2CC[C@@H](Nc3ccn4cc(-c5cc(Cl)c(OC)cc5OC)nc4c3)CC2)cc1` [Example 409, methyl 4-(((cis-4-((2-(5-chloro-2,4-dimethoxyphenyl)imidazo[1,2-a]pyridin-7-yl)amino)cyclohexyl)amino)methyl)benzoate bis(2,2,2-trifluoroacetate)], for which the negative logarithm of the IC50 (pIC50) with A549 (A549 cells) is 6.07.

Turning to `COc1cc(OCC2CC2)c(-c2cn3ccc(N4CCOCC4)cc3n2)cc1Cl` [Example 84, 4-(2-(5-chloro-2-(cyclopropylmethoxy)-4-methoxyphenyl)imidazo-[1,2-a]pyridin-7-yl)morpholine], the IC50 came to 3.8 µM with HCT-116 (setting [1]); 4.3 µM with CCD-18Co (setting [2]); 3.2 µM in the assay on HFL1 (setting [3]); 4.6 µM with A549 (setting [4]); 0.0138 µM at SUV39H2 (enzyme assay).

Regarding `COc1cc(OC)c(-c2cn3ccc(N4CC[C@@H](N)C4)nc3n2)cc1Cl` [Example 55, (R)-1-(2-(5-Chloro-2,4-dimethoxyphenyl)imidazo[1,2-a]pyrimidin-7-yl)pyrrolidin-3-amine hydrochloride], the IC50 in the assay on HCT-116 (HCT-116, 72 h) was found to be 10 µM; with CCD-18Co (CCD-18Co, 72 h) it was 14 µM; in the assay on HFL1 (HFL1, 72 h) it was 4.8 µM; in the assay with A549 (A549, 72 h), 12 µM; at SUV39H2 it was 0.0262 µM.

Take `COc1cc(OC)c(-c2cn3ccc(N4CCC(N)CC4)cc3n2)cc1Cl` [Example 15, 1-[2-(5-chloro-2,4-dimethoxyphenyl)imidazo[1,2-a]pyridin-7-yl]piperidin-4-amine]: the half-inhibitory concentration (IC50) in the assay on HCT-116 (setting [1]) was determined as 3.4 µM; in the assay with CCD-18Co (setting [2]), 6.7 µM; in the assay with HFL1 (setting [3]) it was 2.7 µM; in the assay on A549 (setting [4]), 3.5 µM; at SUV39H2 (enzyme assay), 0.0133 µM.

On to `COc1cc(OC)c(-c2cn3ccc(N4CCC(NC(=O)[C@H](CCC(N)=O)NC(=O)OC(C)(C)C)C4)cc3n2)cc1Cl` (stereo partly drawn) [Example 39, tert-butyl ((2S)-5-amino-1-((1-(2-(5-chloro-2,4-dimethoxyphenyl)imidazo[1,2-a]pyridin-7-yl)pyrrolidin-3-yl)amino)-1,5-dioxopentan-2-yl)carbamate], for which the IC50 at SUV39H2 (enzyme assay) was found to be 0.00489 µM.

In the case of `COc1cc(OC)c(-c2cn3ccc(C)cc3n2)cc1Cl` [Example 76, 2-(5-chloro-2,4-dimethoxyphenyl)-7-methylimidazo[1,2-a]pyridine hydrobromide], the IC50 at SUV39H2 (enzyme assay) was determined as 0.0665 µM.

With `COCC(=O)N1CCN(c2ccn3cc(-c4cc(Cl)c(OC)cc4OC)nc3c2)C(C)C1` (stereo not shown) [Example 313, 1-(4-(2-(5-chloro-2,4-dimethoxyphenyl)imidazo[1,2-a]pyridin-7-yl)-3-methylpiperazin-1-yl)-2-methoxyethanone], the negative logarithm of the IC50 (pIC50) in the assay on A549 (A549 cells) was 5.00.

For the molecule `COc1cc(OC)c(-c2cn3ccc(N4CCC(NC(N)=O)C4)cc3n2)cc1Cl` (stereo not shown) [Example 38, 1-(1-(2-(5-chloro-2,4-dimethoxyphenyl)imidazo[1,2-a]pyridin-7-yl)pyrrolidin-3-yl)urea], at SUV39H2 (enzyme assay), the half-inhibitory concentration (IC50) was found to be 0.00411 µM.

On to `COc1cc(OC)c(-c2cn3ccc(O)cc3n2)cc1Cl` [Example 20, 2-(5-chloro-2,4-dimethoxyphenyl)imidazo[1,2-a]pyridin-7-ol], for which the half-inhibitory concentration (IC50) at SUV39H2 (enzyme assay) was 0.09 µM.

Take `COc1cc(OC)c(-c2cn3ccc(N4CCCC4)nc3n2)cc1C#N` [Example 69, 2,4-dimethoxy-5-(7-(pyrrolidin-1-yl)imidazo[1,2-a]pyrimidin-2-yl)-benzonitrile hydrochloride]: the IC50 on SUV39H2 stood at 0.0141 µM.

In the case of `COc1cc(OC)c(-c2cn3ccc(NCCN4CCCCC4)cc3n2)cc1Cl` [Example 64, 2-(5-chloro-2,4-dimethoxyphenyl)-N-(2-(piperidin-1-yl)ethyl)imidazo[1,2-a]pyridine-7-amine], the half-maximal inhibitory concentration (IC50) in the assay on HCT-116 (HCT-116, 72 h) is 3.4 µM; in the assay on CCD-18Co (CCD-18Co, 72 h), 4.5 µM; in the assay with HFL1 (HFL1, 72 h), 2.6 µM; in the assay on A549 (A549, 72 h), 4.2 µM.

Turning to “3-amino-N-(3-(2-(5-bromo-2,4-dimethoxyphenyl)imidazo[1,2-a]pyrimidin-7-yl)cyclopentyl)propanamide hydrochloride [Example 68]”, the IC50 at SUV39H2 (enzyme assay) was found to be 0.0162 µM.

In the case of `COc1cc(OC)c(-c2cn3ccc(N4CCN(c5cnc(N6CCNCC6)nc5)CC4)cc3n2)cc1Cl` [Example 344, 2-(5-chloro-2,4-dimethoxyphenyl)-7-(4-(2-(piperazin-1-yl)pyrimidin-5-yl)piperazin-1-yl)imidazo[1,2-a]pyridine bis(2,2,2-trifluoroacetate)], the pIC50 in the assay with A549 (A549 cells) is 6.46.

With `COc1cc(OC)c(-c2cn3ccc(N4CC[C@H](NCC5CCN(S(=O)(=O)C6CC6)CC5)C4)cc3n2)cc1Cl` [Example 421, (S)-1-(2-(5-chloro-2,4-dimethoxyphenyl)imidazo[1,2-a]pyridin-7-yl)-N-((1-(cyclopropylsulfonyl)piperidin-4-yl)methyl)pyrrolidin-3-amine], the pIC50 in the assay with A549 (A549 cells) is 6.03.

Take `COc1cc(OC)c(-c2cn3ccc(N4CCN(CCC(=O)O)CC4)cc3n2)cc1Cl` [Example 133, 3-(4-(2-(5-chloro-2,4-dimethoxyphenyl)imidazo[1,2-a]pyridin-7-yl)piperazin-1-yl)propanoic acid]: the IC50 on SUV39H2 (enzyme assay) was determined as 0.0137 µM.

As for `COc1cc(OC)c(-c2cn3ccc(N)nc3n2)cc1C#N` [Example 46, 5-(7-aminoimidazo[1,2-a]pyrimidin-2-yl)-2,4-dimethoxybenzonitrile], the IC50 on SUV39H2 (enzyme assay) turned out to be 0.0453 µM.

`COc1cc(OC)c(-c2cn3ccc(N4CCC(NC(=O)NCCN)C4)cc3n2)cc1Cl` (stereo not shown) [Example 62, 1-(2-aminoethyl)-3-(1-(2-(5-chloro-2,4-dimethoxyphenyl)imidazo[1,2-a]-pyridin-7-yl)pyrrolidin-3-yl)urea]: the IC50 at SUV39H2 (enzyme assay) amounted to 0.00514 µM.
